Data: patent publication US12336981B2, “Compounds and compositions for the inhibition of NAMPT” (Valo Health, Inc., priority 2010, dated 2025)
pIC50: −log10 of the molar value. Where two headings read alike, the source gives them in different places.

Legend:
A2780 cells = experiment: In-vitro cell proliferation assay (SRB), A2780 cells; type: cell-based; settings: Homo sapiens, A2780, 72 h, A2780 cells, 72 hours, read-out: A2780 IC50
In short: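 Growth inhibition was derived from background-corrected SRB absorbance (570 nm), measured on cells fixed in 6% TCA after three days of compound treatment under 5% CO2 at 37° C.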

NAMPT = target: T1, NAMPT (Homo sapiens, UniProt P43490); experiment: Biochemical inhibition assay: NAMPT enzymatic reaction, NMN quantified by mass spectrometry; settings: read-out: Biochem IC50
T1 construct: His tag; host or cells: E. coli
In short: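 Inhibition of E. coli-expressed His-tagged human NAMPT, measured as NMN formation by mass spectrometry after a 30 min room-temperature reaction containing 1 μM NAM, 100 μM PRPP and 2.5 mM ATP.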

T1 sequence (P43490 whole entry): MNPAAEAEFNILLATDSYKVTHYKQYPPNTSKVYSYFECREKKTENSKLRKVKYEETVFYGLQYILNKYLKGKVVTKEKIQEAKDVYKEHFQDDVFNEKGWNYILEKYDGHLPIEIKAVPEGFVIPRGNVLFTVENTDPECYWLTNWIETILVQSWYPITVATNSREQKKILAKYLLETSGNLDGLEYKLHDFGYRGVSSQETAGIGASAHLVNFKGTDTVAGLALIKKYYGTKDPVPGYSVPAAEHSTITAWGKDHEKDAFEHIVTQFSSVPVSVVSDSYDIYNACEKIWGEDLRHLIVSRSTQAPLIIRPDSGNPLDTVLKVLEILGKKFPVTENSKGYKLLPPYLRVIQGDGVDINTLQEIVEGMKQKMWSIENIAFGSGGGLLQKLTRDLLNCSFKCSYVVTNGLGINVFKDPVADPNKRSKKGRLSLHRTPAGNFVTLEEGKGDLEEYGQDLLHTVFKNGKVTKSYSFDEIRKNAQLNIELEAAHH

O=C(NCc1ccc(S(=O)(=O)c2ccc(Cl)cc2)cc1)c1cnc2[nH]ncc2c1 [N-({4-[(4-chlorobenzene)sulfonyl]phenyl}methyl)-1H-pyrazolo[3,4-b]pyridine-5-carboxamide]
pIC50 (A2780 cells; SRB): 7.66
pIC50 (NAMPT; NAMPT enzymatic reaction): 7.54

COc1cccc(OC(C)C)c1S(=O)(=O)c1ccc(CNC(=O)c2cc3cnccc3[nH]2)cc1 [N-[(4-{[2-methoxy-6-(propan-2-yloxy)benzene]sulfonyl}phenyl)methyl]-1H-pyrrolo[3,2-c]pyridine-2-carboxamide]
pIC50 (A2780 cells; SRB assay): 7.66
pIC50 (NAMPT; NAMPT enzymatic reaction): 7.44

O=C(NCc1ccc(S(=O)(=O)c2ccccc2OCc2ccccc2)cc1)c1cc2cnccc2[nH]1 [N-[(4-{[2-(benzyloxy)benzene]sulfonyl}phenyl)methyl]-1H-pyrrolo[3,2-c]pyridine-2-carboxamide]
pIC50 (A2780 cells; SRB assay): 7.48
pIC50 (NAMPT; NAMPT enzymatic reaction): 7.74

COc1cc(S(=O)(=O)c2ccc(CNC(=O)c3cnc4nccn4c3)cc2)ccc1C
pIC50 (A2780 cells; SRB): 8.77
pIC50 (NAMPT; NAMPT enzymatic reaction): 8.89

O=C(NCc1ccc(S(=O)(=O)c2ccc(C(F)(F)F)c(F)c2)cc1)c1cnc2nccn2c1
pIC50 (A2780 cells; SRB): 8.16
pIC50 (NAMPT; NAMPT enzymatic assay): 8.39

Cc1cccc(C)c1S(=O)(=O)c1ccc(CNC(=O)c2cc3ccncc3o2)cc1
pIC50 (A2780 cells; SRB): 6.00 to 7.00
pIC50 (NAMPT; NAMPT enzymatic reaction): 7.49

O=C(NCc1ccc(S(=O)(=O)c2ccc(C(F)(F)F)cn2)cc1)c1cnc2[nH]ncc2c1 [N-({4-[5-(trifluoromethyl)pyridine-2-sulfonyl]phenyl}methyl)-1H-pyrazolo[3,4-b]pyridine-5-carboxamide]
pIC50 (A2780 cells; SRB): 6.00 to 7.00
pIC50 (NAMPT; NAMPT enzymatic assay): 6.00 to 7.00

CCCCOc1ccc(S(=O)(=O)c2ccc(CNC(=O)c3cc4ccncc4s3)cc2)cc1F [N-({4-[(4-butoxy-3-fluorobenzene)sulfonyl]phenyl}methyl)thieno[2,3-c]pyridine-2-carboxamide]
pIC50 (A2780 cells; SRB): 7.90
pIC50 (NAMPT; NAMPT enzymatic reaction): 8.33

Cc1ccc(Cl)c(S(=O)(=O)c2ccc(CNC(=O)c3cnc4nccn4c3)cc2)c1
pIC50 (A2780 cells; SRB): 7.65
pIC50 (NAMPT; NAMPT enzymatic reaction): 8.24

CCc1ccc(S(=O)(=O)c2ccc(CNC(=O)c3cc4ccncc4s3)cc2)cc1 [N-({4-[(4-ethylbenzene)sulfonyl]phenyl}methyl)thieno[2,3-c]pyridine-2-carboxamide]
pIC50 (A2780 cells; SRB assay): 8.11
pIC50 (NAMPT; NAMPT enzymatic reaction): 8.22

Cn1cc(S(=O)(=O)c2ccc(CNC(=O)c3ccc4nccn4c3)cc2)c(C(F)(F)F)n1 [N-({4-[1-methyl-3-(trifluoromethyl)-1H-pyrazole-4-sulfonyl]phenyl}methyl)imidazo[1,2-a]pyridine-6-carboxamide]
pIC50 (A2780 cells; SRB): 7.56
pIC50 (NAMPT; NAMPT enzymatic assay): 7.52

O=C(NCc1ccc(S(=O)(=O)c2cc(F)cc(N3CCCC3)c2)cc1)c1cnc2nccn2c1
pIC50 (A2780 cells; SRB): 8.70
pIC50 (NAMPT; NAMPT enzymatic assay): 8.51

O=C(NCc1ccc(S(=O)(=O)c2ccc(OCC(F)(F)F)c(F)c2)cc1)c1cnc2nccn2c1
pIC50 (A2780 cells; SRB): 8.14
pIC50 (NAMPT; NAMPT enzymatic assay): 8.36

Cc1ccc(Cl)c(S(=O)(=O)c2ccc(CNC(=O)c3cc4ccncc4s3)cc2)c1Cl [N-({4-[(2,6-dichloro-3-methylbenzene)sulfonyl]phenyl}methyl)thieno[2,3-c]pyridine-2-carboxamide]
pIC50 (A2780 cells; SRB): 8.09
pIC50 (NAMPT; NAMPT enzymatic reaction): 8.36

COc1ccc(C)cc1S(=O)(=O)c1ccc(CNC(=O)c2cnc3[nH]ncc3c2)cc1 [N-({4-[(2-methoxy-5-methylbenzene)sulfonyl]phenyl}methyl)-1H-pyrazolo[3,4-b]pyridine-5-carboxamide]
pIC50 (A2780 cells; SRB): 7.61
pIC50 (NAMPT; NAMPT enzymatic reaction): 7.25

COc1cc(S(=O)(=O)c2ccc(CNC(=O)c3cc4ccncc4s3)cc2)ccc1F [N-({4-[(4-fluoro-3-methoxybenzene)sulfonyl]phenyl}methyl)thieno[2,3-c]pyridine-2-carboxamide]
pIC50 (A2780 cells; SRB): 8.51
pIC50 (NAMPT; NAMPT enzymatic reaction): 8.05

N#Cc1ccccc1S(=O)(=O)c1ccc(CNC(=O)c2cc3ccncc3s2)cc1 [N-({4-[(2-cyanobenzene)sulfonyl]phenyl}methyl)thieno[2,3-c]pyridine-2-carboxamide]
pIC50 (A2780 cells; SRB): 7.17
pIC50 (NAMPT; NAMPT enzymatic reaction): 7.84

CNS(=O)(=O)c1ccccc1S(=O)(=O)c1ccc(CNC(=O)c2cnc3[nH]ncc3c2)cc1 [N-[(4-{[2-(methylsulfamoyl)benzene]sulfonyl}phenyl)methyl]-1H-pyrazolo[3,4-b]pyridine-5-carboxamide]
pIC50 (A2780 cells; SRB): < 5.00
pIC50 (NAMPT; NAMPT enzymatic assay): < 6.78

N#CC1(c2ccc(S(=O)(=O)c3ccc(CNC(=O)c4ccc5nccn5c4)cc3)cc2)CCCC1
pIC50 (A2780 cells; SRB): 8.52
pIC50 (NAMPT; NAMPT enzymatic assay): 7.97

O=C(NCc1ccc(S(=O)(=O)c2ccc(C(F)(F)F)cc2C(F)(F)F)cc1)c1cnc2[nH]ncc2c1 [N-[(4-{[2,4-bis(trifluoromethyl)benzene]sulfonyl}phenyl)methyl]-1H-pyrazolo[3,4-b]pyridine-5-carboxamide]
pIC50 (A2780 cells; SRB): 7.25
pIC50 (NAMPT; NAMPT enzymatic assay): 7.09

N#CC1(c2ccc(S(=O)(=O)c3ccc(CNC(=O)c4cc5ccncc5o4)cc3)cc2)CCCC1
pIC50 (A2780 cells; SRB): 8.22
pIC50 (NAMPT; NAMPT enzymatic assay): 8.10

COc1ccc(C(C)(C)C)cc1S(=O)(=O)c1ccc(CNC(=O)c2cnc3[nH]ncc3c2)cc1
pIC50 (A2780 cells; SRB): 7.67
pIC50 (NAMPT; NAMPT enzymatic assay): 7.34

COc1ccc(OC(F)(F)F)cc1S(=O)(=O)c1ccc(CNC(=O)c2cnc3nccn3c2)cc1
pIC50 (A2780 cells; SRB): 8.24
pIC50 (NAMPT; NAMPT enzymatic assay): > 9.19

O=C(NCc1ccc(S(=O)(=O)c2csc(-c3cccc(F)c3)n2)cc1)c1cc2ccncc2s1 [N-({4-[2-(3-fluorophenyl)-1,3-thiazole-4-sulfonyl]phenyl}methyl)thieno[2,3-c]pyridine-2-carboxamide]
pIC50 (A2780 cells; SRB): 7.61
pIC50 (NAMPT; NAMPT enzymatic assay): 8.18

COc1cccc(S(=O)(=O)c2ccc(CNC(=O)c3cnc4[nH]ncc4c3)cc2)c1F
pIC50 (A2780 cells; SRB): 7.25
pIC50 (NAMPT; NAMPT enzymatic reaction): 8.07

Cn1ncc2cc(S(=O)(=O)c3ccc(CNC(=O)c4cc5ccncc5s4)cc3)ccc21 [N-{[4-(1-methyl-1H-indazole-5-sulfonyl)phenyl]methyl}thieno[2,3-c]pyridine-2-carboxamide]
pIC50 (A2780 cells; SRB): 8.80
pIC50 (NAMPT; NAMPT enzymatic assay): 8.82

CN(C)CCc1cccc(S(=O)(=O)c2ccc(CNC(=O)c3cc4cnccc4[nH]3)cc2)c1
pIC50 (A2780 cells; SRB): 7.65
pIC50 (NAMPT; NAMPT enzymatic assay): 7.53

O=C(NCc1ccc(S(=O)(=O)c2ccccc2C(F)(F)F)cc1)c1cc2ccncc2o1
pIC50 (A2780 cells; SRB): 7.23
pIC50 (NAMPT; NAMPT enzymatic assay): 7.71

Cn1ncc2cc(S(=O)(=O)c3ccc(CNC(=O)c4cnc5[nH]ncc5c4)cc3)ccc21 [N-{[4-(1-methyl-1H-indazole-5-sulfonyl)phenyl]methyl}-1H-pyrazolo[3,4-b]pyridine-5-carboxamide]
pIC50 (A2780 cells; SRB): 8.56
pIC50 (NAMPT; NAMPT enzymatic assay): 8.27

COc1cccc(S(=O)(=O)c2ccc(CNC(=O)c3cc4cnccc4[nH]3)cc2)c1OC
pIC50 (A2780 cells; SRB): 8.31
pIC50 (NAMPT; NAMPT enzymatic reaction): 7.93

COc1ccc(OC)c(S(=O)(=O)c2ccc(CNC(=O)c3cnc4[nH]ncc4c3)cc2)c1OC [N-({4-[(2,3,6-trimethoxybenzene)sulfonyl]phenyl}methyl)-1H-pyrazolo[3,4-b]pyridine-5-carboxamide]
pIC50 (A2780 cells; SRB): 7.18
pIC50 (NAMPT; NAMPT enzymatic reaction): 7.10

O=C(NCc1ccc(S(=O)(=O)c2cc(Cl)cc(Cl)c2)cc1)c1cc2cnccc2[nH]1
pIC50 (A2780 cells; SRB): 9.40
pIC50 (NAMPT; NAMPT enzymatic reaction): 9.00

CCOc1ccc(S(=O)(=O)c2ccc(CNC(=O)c3cnc4nccn4c3)cc2)cc1
pIC50 (A2780 cells; SRB): 8.21
pIC50 (NAMPT; NAMPT enzymatic reaction): 8.70

Cc1ccc(Cl)c(S(=O)(=O)c2ccc(CNC(=O)c3cnc4[nH]ncc4c3)cc2)c1
pIC50 (A2780 cells; SRB): 7.18
pIC50 (NAMPT; NAMPT enzymatic reaction): 7.22

O=C(Nc1ccc(CNC(=O)c2cc3cnccc3[nH]2)cc1)c1ccccc1 [N-[(4-benzamidophenyl)methyl]-1H-pyrrolo[3,2-c]pyridine-2-carboxamide]
pIC50 (A2780 cells; SRB assay): 8.40
pIC50 (NAMPT; NAMPT enzymatic reaction): 7.72

COc1cc(S(=O)(=O)c2ccc(CNC(=O)c3cc4ccncc4s3)cc2)ccc1C
pIC50 (A2780 cells; SRB): 8.82
pIC50 (NAMPT; NAMPT enzymatic reaction): 8.57

COc1cc(C)c(S(=O)(=O)c2ccc(CNC(=O)c3ccc4nccn4c3)cc2)cc1C
pIC50 (A2780 cells; SRB): 8.22
pIC50 (NAMPT; NAMPT enzymatic reaction): 7.55

O=C(NCc1ccc(S(=O)(=O)c2ccccc2Oc2ccccc2)cc1)c1ccc2nccn2c1 [N-({4-[(2-phenoxybenzene)sulfonyl]phenyl}methyl)imidazo[1,2-a]pyridine-6-carboxamide]
pIC50 (A2780 cells; SRB): 7.22
pIC50 (NAMPT; NAMPT enzymatic reaction): 7.20

Cn1ncc2ccc(S(=O)(=O)c3ccc(CNC(=O)c4cnc5[nH]ncc5c4)cc3)cc21 [N-{[4-(1-methyl-1H-indazole-6-sulfonyl)phenyl]methyl}-1H-pyrazolo[3,4-b]pyridine-5-carboxamide]
pIC50 (A2780 cells; SRB): 8.52
pIC50 (NAMPT; NAMPT enzymatic assay): 8.40

CCCCOc1ccc(S(=O)(=O)c2ccc(CNC(=O)c3cnc4[nH]ncc4c3)cc2)cc1Cl
pIC50 (A2780 cells; SRB): 7.95
pIC50 (NAMPT; NAMPT enzymatic reaction): 8.35

O=C(NCc1ccc(S(=O)(=O)c2c(Cl)cccc2Cl)cc1)c1cnc2[nH]ncc2c1
pIC50 (A2780 cells; SRB): 5.00 to 6.00
pIC50 (NAMPT; NAMPT enzymatic reaction): 6.75

CCCOc1ccc(S(=O)(=O)c2ccc(CNC(=O)c3cnc4nccn4c3)cc2)cc1F
pIC50 (A2780 cells; SRB): 8.48
pIC50 (NAMPT; NAMPT enzymatic reaction): 8.57

CCN(CC)C(=O)c1cc(F)cc(S(=O)(=O)c2ccc(CNC(=O)c3cc4ccncc4o3)cc2)c1
pIC50 (A2780 cells; SRB): 8.42
pIC50 (NAMPT; NAMPT enzymatic assay): 7.99

O=C(NCc1ccc(S(=O)(=O)c2ccc3nc(C(F)(F)F)cn3c2)cc1)c1ccc2nccn2c1 [N-({4-[2-(trifluoromethyl)imidazo[1,2-a]pyridine-6-sulfonyl]phenyl}methyl)imidazo[1,2-a]pyridine-6-carboxamide]
pIC50 (A2780 cells; SRB): 8.15
pIC50 (NAMPT; NAMPT enzymatic assay): 7.44

CC(C)CNC(=O)c1cccc(S(=O)(=O)c2ccc(CNC(=O)c3cnc4nccn4c3)cc2)c1
pIC50 (A2780 cells; SRB): 7.34
pIC50 (NAMPT; NAMPT enzymatic assay): 8.15

O=C(NCc1ccc(S(=O)(=O)N2CC3CCC(C2)O3)cc1)c1cc2cnccc2[nH]1 [N-[(4-{8-oxa-3-azabicyclo[3.2.1]octane-3-sulfonyl}phenyl)methyl]-1H-pyrrolo[3,2-c]pyridine-2-carboxamide]
pIC50 (A2780 cells; SRB assay): 8.52
pIC50 (NAMPT; NAMPT enzymatic reaction): 8.10

O=C(NCc1ccc(S(=O)(=O)c2cccc3ccccc23)cc1)c1cc2ccncc2s1 [N-{[4-(naphthalene-1-sulfonyl)phenyl]methyl}thieno[2,3-c]pyridine-2-carboxamide]
pIC50 (A2780 cells; SRB assay): 9.30
pIC50 (NAMPT; NAMPT enzymatic reaction): 8.70
